# Experimental data: patent publication US8124793B2, “Derivatives of ethylene methanedisulfonate as cancer chemotherapeutic agents” (priority 2007, dated 2012)
# How the values were obtained:
# Format in all cases: cell-based
# CCRF-CEM = assay: NCI screen, growth of human tumor cells: Leukemia CCRF-CEM; details: CCRF-CEM
# Outline: (§1)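 The NCI screen tests each compound on human cancer cell lines and reports percent growth. Concentrations are given in molar units; the number of data points per compound is sixty at minimum.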
# MOLT-4 = assay: NCI screen, growth of human tumor cells: Leukemia MOLT-4; details: MOLT-4 (Leukemia), 10^−4 molar
# Outline: as §1
# SR = assay: NCI screen, growth of human tumor cells: Leukemia SR; details: SR
# Outline: as §1
# AS49/ATCC = assay: NCI screen, growth of human tumor cells: Non-Small Cell Lung AS49/ATCC; details: A549/ATCC, 10^−4 molar
# Outline: as §1
# EKVX = assay: NCI screen, growth of human tumor cells: Non-Small Cell Lung EKVX; details: EKVX, 10^−4 molar
# Outline: as §1
# HOP-62 = assay: NCI screen, growth of human tumor cells: Non-Small Cell Lung HOP-62
# Outline: as §1
# HOP-92 = assay: NCI screen, growth of human tumor cells: Non-Small Cell Lung HOP-92
# Outline: as §1
# NCI-H226 = assay: NCI screen, growth of human tumor cells: Non-Small Cell Lung NCI-H226
# Outline: as §1
# NCI-H522 = assay: NCI screen, growth of human tumor cells: Non-Small Cell Lung NCI-H522
# Outline: as §1
# NCI-H460 = assay: NCI screen, growth of human tumor cells: Non-Small Cell Lung NCI-H460
# Outline: as §1
# NCI-H322M = assay: NCI screen, growth of human tumor cells: Non-Small Cell Lung NCI-H322M; details: NCI-H322M, 10^−4 molar
# Outline: as §1
# NCI-H23 = assay: NCI screen, growth of human tumor cells: Non-Small Cell Lung NCI-H23
# Outline: as §1
# HCC-2998 = assay: NCI screen, growth of human tumor cells: HCC-2998 (listed under Non-Small Cell Lung)
# Outline: as §1
# SF-268 = assay: NCI screen, growth of human tumor cells: CNS Cancer SF-268
# Outline: as §1
# SF-539 = assay: NCI screen, growth of human tumor cells: CNS Cancer SF-539
# Outline: as §1
# U-251 = assay: NCI screen, growth of human tumor cells: CNS Cancer U-251
# Outline: as §1
# LOXIMVI = assay: NCI screen, growth of human tumor cells: Melanoma LOXIMVI; details: LOXIMVI
# Outline: as §1
# MALME-3M = assay: NCI screen, growth of human tumor cells: Melanoma MALME-3M; details: MALME-3M
# Outline: as §1
# SK-MEL-2 = assay: NCI screen, growth of human tumor cells: Melanoma SK-MEL-2
# Outline: as §1
# SK-MEL-5 = assay: NCI screen, growth of human tumor cells: Melanoma SK-MEL-5
# Outline: as §1
# UACC-257 = assay: NCI screen, growth of human tumor cells: Melanoma UACC-257; details: UACC-257, 10^−4 molar
# Outline: as §1
# UACC-62 = assay: NCI screen, growth of human tumor cells: Melanoma UACC-62
# Outline: as §1
# IGROVI = assay: NCI screen, growth of human tumor cells: Ovarian Cancer IGROVI; details: IGROVI
# Outline: as §1
# OVCAR-3 = assay: NCI screen, growth of human tumor cells: Ovarian Cancer OVCAR-3; details: OVCAR-3, 10^−4 molar
# Outline: as §1
# OVCAR-4 = assay: NCI screen, growth of human tumor cells: Ovarian Cancer OVCAR-4; details: OVCAR-4, 10^−4 molar
# Outline: as §1
# OVCAR-5 = assay: NCI screen, growth of human tumor cells: Ovarian Cancer OVCAR-5
# Outline: as §1
# 786-0 = assay: NCI screen, growth of human tumor cells: Renal Cancer 786-0
# Outline: as §1
# UO-31 = assay: NCI screen, growth of human tumor cells: Renal Cancer UO-31; details: UO-31, 10^−4 molar
# Outline: as §1
# PC-3 = assay: NCI screen, growth of human tumor cells: Prostate Cancer PC-3
# Outline: as §1
# DU-145 = assay: NCI screen, growth of human tumor cells: Prostate Cancer DU-145; details: DV-145, 10^−4 molar
# Outline: as §1
# MCF 7 = assay: NCI screen, growth of human tumor cells: Breast Cancer MCF 7
# Outline: as §1
# MCF7/ADR-RES = assay: NCI screen, growth of human tumor cells: Breast Cancer MCF7/ADR-RES; details: MCF7/ADR-RES (Breast Cancer), 10^−4 molar
# Outline: as §1
# MDA-MB-435 = assay: NCI screen, growth of human tumor cells: Breast Cancer MDA-MB-435
# Outline: as §1
# K562 = assay: NCI screen, growth of human tumor cells: Leukemia K562; details: K562, 10^−4 molar
# Outline: as §1
# HCT-116 = assay: NCI screen, growth of human tumor cells: Colon Cancer HCT-116; details: HCT-116, 10^−4 molar
# Outline: as §1
# KM12 = assay: NCI screen, growth of human tumor cells: Colon Cancer KM12; details: KM12, 10^−4 molar
# Outline: as §1
# CAKI-1 = assay: NCI screen, growth of human tumor cells: Renal Cancer CAKI-1; details: CAKI-1 (Renal Cancer), 10^−4 molar
# Outline: as §1
structure (smiles),measurement,setting,value
"CC1=C(CC2S(=O)(=O)OCCOS2(=O)=O)C(=O)c2ccccc2C1=O [NSC 693874, ethylene (3-methyl-1,4-naphtho-2-quinoyl)-1,1-ethanedisulfonate]",% Growth,CCRF-CEM; 10^−4 molar,−49%
same,% Growth,CCRF-CEM; 10^−5 molar,28%
same,percent of growth of human tumor cells,MOLT-4,−51%
same,% Growth,SR; 10^−4 molar,−45%
same,% Growth,SR; 10^−5 molar,−15%
same,% Growth,SR; 10^−6 molar,9%
same,% Growth,SR; 10^−7 molar,48%
same,% Growth,SR; 10^−8 molar,79%
same,% Growth,AS49/ATCC,−93%
same,% Growth,EKVX,−93%
same,% Growth,"HOP-62; HOP-62, 10^−4 molar",−94%
same,% Growth,"HOP-92; HOP-92, 10^−4 molar",−88%
same,% Growth,"NCI-H226; NCI-H226, 10^−4 molar",−82%
same,% Growth,"NCI-H226; NCI-H226, 10^−5 molar",48%
same,% Growth,"NCI-H522; NCI-H522, 10^−4 molar",−69%
same,% Growth,"NCI-H460; NCI-H460, 10^−4 molar",−73%
same,% Growth,"NCI-H460; NCI-H460, 10^−5 molar",59%
same,% Growth,NCI-H322M,−100%
same,% Growth,"NCI-H23; NCI-H23, 10^−4 molar",−89%
same,% Growth,"NCI-H23; NCI-H23, 10^−5 molar",62%
same,% Growth,"HCC-2998; HCC-2998, 10^−4 molar",−100%
same,% Growth,"HCC-2998; HCC-2998, 10^−5 molar",50%
same,% Growth,"SF-268; SF-268, 10^−4 molar",10%
same,% Growth,"SF-268; SF-268, 10^−5 molar",49%
same,% Growth,"SF-539; SF-539, 10^−4 molar",−100%
same,% Growth,"SF-539; SF-539, 10^−5 molar",51%
same,% Growth,"U-251; U251, 10^−4 molar",−25%
same,% Growth,"U-251; U251, 10^−5 molar",57%
same,% Growth,LOXIMVI; 10^−4 molar,−95%
same,% Growth,LOXIMVI; 10^−5 molar,35%
same,% Growth,MALME-3M; 10^−4 molar,−78%
same,% Growth,"SK-MEL-2; SK-MEL-2, 10^−4 molar",−85%
same,% Growth,"SK-MEL-5; SK-MEL-5, 10^−4 molar",−100%
same,% Growth,UACC-257,−100%
same,% Growth,"UACC-62; UACC-62, 10^−4 molar",−92%
same,% Growth,"UACC-62; UACC-62, 10^−5 molar",48%
same,% Growth,IGROVI; 10^−4 molar,−100%
same,% Growth,IGROVI; 10^−5 molar,52%
same,% Growth,OVCAR-3,−100%
same,% Growth,OVCAR-4,−89%
same,% Growth,"OVCAR-5; OVCAR-5, 10^−4 molar",−98%
same,percent of growth of human tumor cells,"786-0; 786-0 (Renal Cancer), 10^−4 molar",−16%
same,% Growth,UO-31,−97%
same,% Growth,"PC-3; PC-3, 10^−4 molar",−80%
same,% Growth,DU-145,−94%
same,% Growth,"MCF 7; MCF7, 10^−4 molar",−83%
same,% Growth,"MCF 7; MCF7, 10^−5 molar",56%
same,percent of growth of human tumor cells,MCF7/ADR-RES,−41%
same,% Growth,"MDA-MB-435; MDA-MB-435, 10^−4 molar",−92%
same,% Growth,"MDA-MB-435; MDA-MB-435, 10^−5 molar",54%
CC(=O)C1(CC2=C(C)C(=O)c3ccccc3C2=O)S(=O)(=O)OCCOS1(=O)=O [NSC 701690],% Growth,CCRF-CEM; 10^−4 molar,−73%
same,% Growth,CCRF-CEM; 10^−5 molar,55%
same,% Growth,K562,−66%
same,% Growth,SR; 10^−4 molar,−100%
same,% Growth,SR; 10^−5 molar,−8%
same,% Growth,SR; 10^−6 molar,19%
same,% Growth,AS49/ATCC,−97%
same,% Growth,EKVX,−91%
same,% Growth,"HOP-62; HOP-62, 10^−4 molar",−92%
same,% Growth,"HOP-62; HOP-62, 10^−5 molar",52%
same,% Growth,"HOP-92; HOP-92, 10^−4 molar",−66%
same,% Growth,"HOP-92; HOP-92, 10^−5 molar",23%
same,% Growth,"HOP-92; HOP-92, 10^−6 molar",60%
same,% Growth,"NCI-H522; NCI-H522, 10^−4 molar",−100%
same,% Growth,"NCI-H522; NCI-H522, 10^−5 molar",35%
same,% Growth,"NCI-H522; NCI-H522, 10^−6 molar",57%
same,% Growth,"NCI-H522; NCI-H522, 10^−7 molar",77%
same,% Growth,"NCI-H522; NCI-H522, 10^−8 molar",67%
same,% Growth,"NCI-H460; NCI-H460, 10^−4 molar",−100%
same,% Growth,"NCI-H460; NCI-H460, 10^−5 molar",42%
same,% Growth,NCI-H322M,−100%
same,% Growth,"NCI-H23; NCI-H23, 10^−4 molar",−91%
same,% Growth,"HCC-2998; HCC-2998, 10^−4 molar",−100%
same,% Growth,HCT-116,−100%
same,% Growth,KM12,−71%
same,% Growth,"SF-268; SF-268, 10^−4 molar",−100%
same,% Growth,"SF-268; SF-268, 10^−5 molar",40%
same,% Growth,"SF-268; SF-268, 10^−6 molar",65%
same,% Growth,"SF-539; SF-539, 10^−4 molar",−100%
same,% Growth,"SF-539; SF-539, 10^−5 molar",44%
same,% Growth,"U-251; U251, 10^−4 molar",−100%
same,% Growth,"U-251; U251, 10^−5 molar",42%
same,% Growth,"U-251; U251, 10^−6 molar",53%
same,% Growth,"U-251; U251, 10^−7 molar",46%
same,% Growth,"U-251; U251, 10^−8 molar",62%
same,% Growth,LOXIMVI; 10^−4 molar,−100%
same,% Growth,LOXIMVI; 10^−5 molar,36%
same,% Growth,MALME-3M; 10^−4 molar,−100%
same,% Growth,MALME-3M; 10^−5 molar,38%
same,% Growth,MALME-3M; 10^−6 molar,43%
same,% Growth,"SK-MEL-2; SK-MEL-2, 10^−4 molar",−73%
same,% Growth,"SK-MEL-2; SK-MEL-2, 10^−5 molar",7%
same,% Growth,"SK-MEL-2; SK-MEL-2, 10^−6 molar",−2%
same,% Growth,"SK-MEL-2; SK-MEL-2, 10^−7 molar",−8%
same,% Growth,"SK-MEL-2; SK-MEL-2, 10^−8 molar",−3%
same,% Growth,"SK-MEL-5; SK-MEL-5, 10^−4 molar",−100%
same,% Growth,"SK-MEL-5; SK-MEL-5, 10^−5 molar",58%
same,% Growth,UACC-257,−83%
same,percent of growth of human tumor cells,"UACC-62; UACC-62 (Melanoma), 10^−4 molar",−57%
same,% Growth,IGROVI; 10^−4 molar,−100%
same,% Growth,IGROVI; 10^−5 molar,40%
same,% Growth,IGROVI; 10^−6 molar,60%
same,% Growth,OVCAR-3,−73%
same,% Growth,OVCAR-4,−100%
same,percent of growth of human tumor cells,"OVCAR-5; OVCAR-5 (Ovarian Cancer), 10^−4 molar",−53%
same,% Growth,"786-0; 786-0, 10^−4 molar",−100%
same,% Growth,"786-0; 786-0, 10^−5 molar",36%
same,percent of growth of human tumor cells,CAKI-1,−53%
same,% Growth,UO-31,−92%
same,% Growth,"PC-3; PC-3, 10^−4 molar",−38%
same,% Growth,"PC-3; PC-3, 10^−5 molar",52%
same,% Growth,"PC-3; PC-3, 10^−6 molar",59%
same,% Growth,"PC-3; PC-3, 10^−7 molar",28%
same,% Growth,"PC-3; PC-3, 10^−8 molar",28%
same,% Growth,"MCF 7; MCF7, 10^−4 molar",−100%
same,percent of growth of human tumor cells,MCF7/ADR-RES,−40%
same,% Growth,"MDA-MB-435; MDA-MB-435, 10^−4 molar",−95%
